Experimental data reported in ChEMBL document CHEMBL1125751, “On the optimization of hydrophobic and hydrophilic substituent interactions of 2,4-diamino-5-(substituted-benzyl)pyrimidines with dihydrofolate reductase” (J Med Chem, 1991).

How the values were obtained:
[1] = biological target: T1, Dihydrofolate reductase (Homo sapiens) (UniProt P00374); assay: (§1) Selectivity index against Escherichia coli DHFR.; format: functional
T1 sequence (whole entry): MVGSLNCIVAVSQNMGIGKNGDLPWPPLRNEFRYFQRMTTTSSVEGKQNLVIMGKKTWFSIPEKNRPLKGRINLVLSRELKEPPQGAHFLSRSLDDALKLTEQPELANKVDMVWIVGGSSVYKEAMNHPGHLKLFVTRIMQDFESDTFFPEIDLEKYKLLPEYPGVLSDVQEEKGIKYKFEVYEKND

[2] = biological target: T1, Dihydrofolate reductase (Homo sapiens); assay: (§2) Selectivity index against Lactobacillus casei DHFR.; format: functional
[3] = biological target: T2, Dihydrofolate reductase (Gallus gallus, UniProt P00378); assay: Compound was evaluated for inhibitory activity against chicken dihydrofolate reductase; settings: read-out: Log 1/Ki (converted)
T2 sequence (P00378 whole entry): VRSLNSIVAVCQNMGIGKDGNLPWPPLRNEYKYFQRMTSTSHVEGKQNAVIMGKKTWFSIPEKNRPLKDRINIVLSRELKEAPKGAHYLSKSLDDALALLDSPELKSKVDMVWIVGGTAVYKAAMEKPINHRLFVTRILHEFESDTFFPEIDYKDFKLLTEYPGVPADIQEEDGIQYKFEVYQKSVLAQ

[4] = as §1; format: functional
[5] = as §2; format: functional

SI [1] | SI [2] | Ki [3] [µM] | Compound | SI [4] | SI [5]
4.28 | 3.13 | – | CCc1cc(Cc2cnc(N)nc2N)cc(CO)c1CO | – | –
– | – | 708 | CCc1cc(Cc2cnc(N)nc2N)cc(NC(C)=O)c1CO | 4.87 | 3.36
